Assay [1] has as its system Lactuca sativa. The assay can be described thus: Phytotoxicity against Lactuca sativa assessed as inhibition of seedlings germination at 1.0 mM after 4 days. The format is functional, organism-based.
Assay [2] deals with Lactuca sativa. In words: Phytotoxicity against Lactuca sativa assessed as inhibition of seedlings germination at 3.33 mM after 4 days. The assay is classed as functional, organism-based.
The nature of assay [3]: Inhibition of Photosystem 2 in spinach thylakoid membrane assessed as inhibition of photosynthetic oxygen evolution. The format is cell membranes, Spinacia oleracea.

Molecules are shown by their SMILES. Active and inactive are the calls of the source. The calls are words filed in the database; no cut-off is given here.

Take `C=CC/C=C\C/C=C\CCCCCCCc1c(O)c(OC)cc(OC)c1O`: the outcome with Lactuca sativa [1] and with Lactuca sativa [2] was Active. For the same molecule, the half-inhibitory concentration (IC50) (as a rule, the concentration needed to halve the response being measured) in assay [3] turned out to be 90 nM.

In the case of `CN(C)C(=O)Nc1ccc(Cl)c(Cl)c1` [DCMU], the IC50 in assay [3] stood at 230 nM.

Regarding `C=CC/C=C\C/C=C\CCCCCCCc1c(O)c(OC)cc(OCC)c1O` [E565], the IC50 in assay [3] worked out at 200 nM.

Take `C=CC/C=C\C/C=C\CCCCCCCC1=C(O)C(=O)C=C(OC)C1=O` [SORGOLEONE]: in the assay with Lactuca sativa [2], the result was Active. For the same molecule, the IC50 in assay [3] was 90 nM.
